Read-outs that look alike come from different tables or passages of the source.
Assays:
LoVo = assay: cells; conditions: Homo sapiens, LoVo, 48 h
Procedure, shortened: (§1)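 Colorimetric SRB read (490 nm) on triplicate wells after 48 h at 37 °C, 5% CO2. Dose range 10 to 10^−8 μg/ml; 5×10^3 cells/well pre-attached 18 h.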

A-549 = assay: cells; conditions: Homo sapiens, A549, 48 h
Procedure, shortened: as §1

HT-29 = assay: cells; conditions: Homo sapiens, HT-29, 48 h
Procedure, shortened: as §1

HeLa = assay: Inhibition of cells growth by colorimetric assay (SRB); conditions: Homo sapiens, HeLa, 48 h
Procedure, shortened: as §1

K-562 = assay: as above; conditions: Homo sapiens, K562, 48 h
Procedure, shortened: as §1

PANC-1 = assay: as above; conditions: Homo sapiens, PANC-1, 48 h
Procedure, shortened: as §1

LNCaP = assay: as above; conditions: Homo sapiens, LNCaP, 48 h
Procedure, shortened: as §1

SK-MEL-28 = assay: as above; conditions: Homo sapiens, SK-MEL-28, 48 h
Procedure, shortened: as §1

IGROV-1 = assay: as above; conditions: Homo sapiens, IGROV-1, 48 h
Procedure, shortened: as §1

IGROV-ET = assay: as above; conditions: Homo sapiens, 48 h
Procedure, shortened: as §1

HeLa-APL = assay: as above; conditions: Homo sapiens, 48 h; for GI50: read-out: HELA-APL GI50; for IC (TGI): read-out: HELA-APL TGI
Procedure, shortened: as §1

LoVo-Dox = assay: as above; conditions: Homo sapiens, 48 h
Procedure, shortened: as §1

SK-BR-3 = assay: as above; conditions: Homo sapiens, SK-BR-3, 48 h
Procedure, shortened: as §1

DU-145 = assay: as above; conditions: Homo sapiens, DU-145, 48 h
Procedure, shortened: as §1

Structure (SMILES): C=CCN1[C@@H]2c3c(cc(C)c(OC)c3O)C[C@H]1[C@H](C#N)N1C2[C@@H]2SCC(NC(=O)CCCCCCCCCCCCCCC)C(=O)OC[C@H]1c1c3c(c(C)c(OC(C)=O)c12)OCO3 (stereo partly shown) [compound 26]
- GI50 (LoVo; read-out: GI50 LOVO): 11600 nM
- CC50 (LoVo; read-out: LC50 LOVO): 11600 nM
- IC (TGI) (LoVo; read-out: TGI LOVO): 11600 nM
- GI50 (A-549; read-out: GI50 A549): 11600 nM
- CC50 (A-549; read-out: LC50 A549): 11600 nM
- IC (TGI) (A-549; read-out: TGI A549): 11600 nM
- GI50 (HT-29; read-out: GI50 HT29): 11600 nM
- CC50 (HT-29; read-out: LC50 HT29): 11600 nM
- IC (TGI) (HT-29; read-out: TGI HT29): 11600 nM
- GI50 (HeLa; read-out: GI50 HELA): 11600 nM
- CC50 (HeLa; read-out: LC50 HELA): 11600 nM
- IC (TGI) (HeLa; read-out: TGI HELA): 11600 nM
- GI50 (K-562; read-out: GI50 K562): 2300 nM
- CC50 (K-562; read-out: LC50 K562): 10600 nM
- IC (TGI) (K-562; read-out: TGI K562): 4940 nM
- GI50 (PANC-1; read-out: GI50 PANC-1): 11600 nM
- CC50 (PANC-1; read-out: LC50 PANC-1): 11600 nM
- IC (TGI) (PANC-1; read-out: TGI PANC-1): 11600 nM
- GI50 (LNCaP; read-out: GI50 LNCAP): 3820 nM
- CC50 (LNCaP; read-out: LC50 LNCAP): 11600 nM
- IC (TGI) (LNCaP; read-out: TGI LNCAP): 11600 nM
- GI50 (SK-MEL-28; read-out: GI50 MEL-28): 11600 nM
- CC50 (SK-MEL-28; read-out: LC50 MEL-28): 11600 nM
- IC (TGI) (SK-MEL-28; read-out: TGI MEL-28): 11600 nM
- GI50 (IGROV-1; read-out: GI50 IGROV): 6840 nM
- CC50 (IGROV-1; read-out: LC50 IGROV): 11600 nM
- IC (TGI) (IGROV-1; read-out: TGI IGROV): 11600 nM
- GI50 (IGROV-ET; read-out: GI50 IGROV-ET): 11600 nM
- CC50 (IGROV-ET; read-out: LC50 IGROV-ET): 11600 nM
- IC (TGI) (IGROV-ET; read-out: TGI IGROV-ET): 11600 nM
- CC50 (HeLa-APL; read-out: LC50 HELA-APL): 11600 nM
- GI50 (LoVo-Dox; read-out: GI50 LOVO-DOX): 11600 nM
- CC50 (LoVo-Dox; read-out: LC50 LOVO-DOX): 11600 nM
- IC (TGI) (LoVo-Dox; read-out: TGI LOVO-DOX): 11600 nM
- GI50 (SK-BR-3; read-out: GI50 SK-BR3): 4230 nM
- CC50 (SK-BR-3; read-out: LC50 SK-BR3): 11600 nM
- IC (TGI) (SK-BR-3; read-out: TGI SK-BR3): 9200 nM
- GI50 (DU-145; read-out: GI50 DU145): 11600 nM
- CC50 (DU-145; read-out: LC50 DU145): 11600 nM
- IC (TGI) (DU-145; read-out: TGI DU145): 11600 nM

Structure (SMILES): C=CCN1[C@@H]2c3c(cc(C)c(OC)c3O)C[C@H]1[C@H](C#N)N1C2[C@@H]2SC[C@]3(NCCc4c3[nH]c3ccc(OC)cc43)C(=O)OC[C@H]1c1c3c(c(C)c(OC(C)=O)c12)OCO3 (stereo partly shown) [compound 56]
- GI50 (LoVo; read-out: LOVO GI50): 23 nM
- CC50 (LoVo; read-out: LOVO LC50): 101 nM
- IC (TGI) (LoVo; read-out: LOVO TGI): 48.2 nM
- GI50 (A-549; read-out: A549 GI50): 30.2 nM
- CC50 (A-549; read-out: A549 LC50): 705 nM
- IC (TGI) (A-549; read-out: A549 TGI): 68.7 nM
- GI50 (HT-29; read-out: HT29 GI50): 48.8 nM
- CC50 (HT-29; read-out: HT29 LC50): 12000 nM
- IC (TGI) (HT-29; read-out: HT29 TGI): 571 nM
- GI50 (HeLa; read-out: HELA GI50): 27.1 nM
- CC50 (HeLa; read-out: HELA LC50): 104 nM
- IC (TGI) (HeLa; read-out: HELA TGI): 53.1 nM
- GI50 (K-562; read-out: K562 GI50): 6.89 nM
- CC50 (K-562; read-out: K562 LC50): 12000 nM
- IC (TGI) (K-562; read-out: K562 TGI): 86.8 nM
- GI50 (PANC-1; read-out: PANC-1 GI50): 90.2 nM
- CC50 (PANC-1; read-out: PANC-1 LC50): 12000 nM
- IC (TGI) (PANC-1; read-out: PANC-1 TGI): 953 nM
- GI50 (LNCaP; read-out: LNCAP GI50): 12.2 nM
- CC50 (LNCaP; read-out: LNCAP LC50): 67.7 nM
- IC (TGI) (LNCaP; read-out: LNCAP TGI): 28.8 nM
- GI50 (SK-MEL-28; read-out: MEL-28 GI50): 26.3 nM
- CC50 (SK-MEL-28; read-out: MEL-28 LC50): 91.4 nM
- IC (TGI) (SK-MEL-28; read-out: MEL-28 TGI): 49 nM
- GI50 (IGROV-1; read-out: IGROV GI50): 34.2 nM
- CC50 (IGROV-1; read-out: IGROV LC50): 1060 nM
- IC (TGI) (IGROV-1; read-out: IGROV TGI): 69.3 nM
- GI50 (IGROV-ET; read-out: IGROV-ET GI50): 40.2 nM
- CC50 (IGROV-ET; read-out: IGROV-ET LC50): 12000 nM
- IC (TGI) (IGROV-ET; read-out: IGROV-ET TGI): 79.7 nM
- GI50 (HeLa-APL): 25.9 nM
- CC50 (HeLa-APL; read-out: HELA-APL LC50): 204 nM
- IC (TGI) (HeLa-APL): 58.3 nM
- GI50 (LoVo-Dox; read-out: LOVO-DOX GI50): 333 nM
- CC50 (LoVo-Dox; read-out: LOVO-DOX LC50): 12000 nM
- IC (TGI) (LoVo-Dox; read-out: LOVO-DOX TGI): 1330 nM
- GI50 (SK-BR-3; read-out: SK-BR3 GI50): 5.71 nM
- CC50 (SK-BR-3; read-out: SK-BR3 LC50): 422 nM
- IC (TGI) (SK-BR-3; read-out: SK-BR3 TGI): 18.6 nM
- GI50 (DU-145; read-out: DU145 GI50): 41 nM
- CC50 (DU-145; read-out: DU145 LC50): 12000 nM
- IC (TGI) (DU-145; read-out: DU145 TGI): 101 nM

Structure (SMILES): COc1c(C)cc2c(c1O)[C@H]1N[C@@H](C2)[C@H](O)N2C1[C@@H]1SC[C@]3(NCCc4c3[nH]c3ccc(C)cc43)C(=O)OC[C@H]2c2c3c(c(C)c(OC(C)=O)c21)OCO3 (stereo partly shown) [compound 66]
- GI50 (LoVo; read-out: LOVO GI50): 5.27 nM
- CC50 (LoVo; read-out: LOVO LC50): 4350 nM
- IC (TGI) (LoVo; read-out: LOVO TGI): 20.9 nM
- GI50 (A-549; read-out: A549 GI50): 7.62 nM
- CC50 (A-549; read-out: A549 LC50): 874 nM
- IC (TGI) (A-549; read-out: A549 TGI): 39.7 nM
- GI50 (HT-29; read-out: HT29 GI50): 5.86 nM
- CC50 (HT-29; read-out: HT29 LC50): 13200 nM
- IC (TGI) (HT-29; read-out: HT29 TGI): 181 nM
- GI50 (HeLa; read-out: HELA GI50): 2.41 nM
- CC50 (HeLa; read-out: HELA LC50): 9.07 nM
- IC (TGI) (HeLa; read-out: HELA TGI): 4.68 nM
- GI50 (K-562; read-out: K562 GI50): 4.33 nM
- CC50 (K-562; read-out: K562 LC50): 484 nM
- IC (TGI) (K-562; read-out: K562 TGI): 12.5 nM
- GI50 (PANC-1; read-out: PANC-1 GI50): 4.57 nM
- CC50 (PANC-1; read-out: PANC-1 LC50): 6400 nM
- IC (TGI) (PANC-1; read-out: PANC-1 TGI): 23.4 nM
- GI50 (LNCaP; read-out: LNCAP GI50): 1.99 nM
- CC50 (LNCaP; read-out: LNCAP LC50): 7.39 nM
- IC (TGI) (LNCaP; read-out: LNCAP TGI): 3.83 nM
- GI50 (SK-MEL-28; read-out: MEL-28 GI50): 5.34 nM
- CC50 (SK-MEL-28; read-out: MEL-28 LC50): 74.5 nM
- IC (TGI) (SK-MEL-28; read-out: MEL-28 TGI): 18.9 nM
- GI50 (IGROV-1; read-out: IGROV GI50): 2.99 nM
- CC50 (IGROV-1; read-out: IGROV LC50): 160 nM
- IC (TGI) (IGROV-1; read-out: IGROV TGI): 6.76 nM
- GI50 (IGROV-ET; read-out: IGROV-ET GI50): 38.3 nM
- CC50 (IGROV-ET; read-out: IGROV-ET LC50): 5590 nM
- IC (TGI) (IGROV-ET; read-out: IGROV-ET TGI): 179 nM
- GI50 (HeLa-APL): 3.05 nM
- CC50 (HeLa-APL; read-out: HELA-APL LC50): 12.7 nM
- IC (TGI) (HeLa-APL): 6.24 nM
- GI50 (LoVo-Dox; read-out: LOVO-DOX GI50): 370 nM
- CC50 (LoVo-Dox; read-out: LOVO-DOX LC50): 13200 nM
- IC (TGI) (LoVo-Dox; read-out: LOVO-DOX TGI): 1890 nM
- GI50 (SK-BR-3; read-out: SK-BR3 GI50): 6.5 nM
- CC50 (SK-BR-3; read-out: SK-BR3 LC50): 13200 nM
- IC (TGI) (SK-BR-3; read-out: SK-BR3 TGI): 331 nM
- GI50 (DU-145; read-out: DU145 GI50): 3.39 nM
- CC50 (DU-145; read-out: DU145 LC50): 3860 nM
- IC (TGI) (DU-145; read-out: DU145 TGI): 1.6 nM

Source: patent publication US7767659B2, “Synthesis of naturally occurring ecteinascidins and related compounds” (Pharma Mar, S.A., priority 2002, dated 2010)
